Reference: patent publication US9701645B2 (priority 2005, dated 2017)
Read-outs that look alike come from different tables or passages of the source.

Tests used:
mice [1] = test: Seizure-like convulsion incidence in mice; type: in vivo, mouse
Description: One of the most obvious side-effects of potent delta agonists that rapidly penetrate the blood brain barrier is convulsive episodes reminiscent of possible seizure-like brain activity. The mouse is the chosen species for study of these effects since the mouse is the most highly convulsion-sensitive rodent species and mice present with a clear and obvious, whole body tonic-clonic convulsion. One of the earliest phases of delta agonist safety assessments is thus the determination of the convulsion threshold in mice.

mu-opioid receptor [2] = biological target: T1, mu-opioid receptor (Rattus norvegicus, UniProt P33535); test: Radioligand binding, mu receptor ([3H]DAMGO)
T1 construct: delta and mu receptors from rat whole brain homogenate; from tissue; host or cells: rat whole brain homogenate (membrane fractions)
Procedure: (§1) The basic pharmacology of the Formulas (i)-(iv) is described below in terms of receptor binding affinity (delta and mu receptors from rat whole brain homogenate; kappa receptors from guinea pig cerebellar homogenate), intrinsic activity in mouse isolated vas deferens (delta receptor) and guinea pig isolated ileum (mu receptor).
(§2) Membrane fractions were incubated with test compound or naloxone (1×10^−6 M) plus 0.1 nM of the delta-opioid receptor agonist [^3H] DPDPE (specific activity 50.6 Ci/mmol), 0.1 nM of the mu-opioid receptor agonist [^3H]DAMGO (specific activity 50.0 Ci/mmol) or 0.1 nM of the kappa-opioid receptor agonist [^3H]U69593 (specific activity 41.4 Ci/mmol) in 2 ml of 10 mM Tris-HCl buffer containing 5 mM MgCl2 and protease inhibitors. Incubation was carried out for 90 min at 25° C. in order to permit the complete equilibration of the radioligand with its receptor. The reaction was terminated by rapid filtration through Whatman GF/C glass fiber filters using a cell harvester (model M-48R, Brandel Instruments, Gaithersberg, Md.) followed by two 5 ml rinses with ice-cold 50 mM Tris buffer. Non-specific binding was defined as that radioligand bound in the presence of 1×10^−6 M naloxone.

kappa-opioid receptor [3] = biological target: T2, kappa-opioid receptor (Cavia porcellus, UniProt P41144); test: Radioligand binding, kappa receptor ([3H]U69593); parameters: species or system guinea pig
T2 construct: kappa receptors from guinea pig cerebellar homogenate; from tissue; host or cells: guinea pig cerebellar homogenate (membrane fractions)
Procedure: as §1, §2

delta receptor = biological target: T3, delta receptor (Mus musculus, UniProt P32300); test: Intrinsic activity, electrically-induced contractions of mouse isolated vas deferens (MVD); type: cell-based
T3 construct: vasa deferentia were isolated from male CD-1 mice; tissue Charles River; host or cells: isolated vas deferens of male CD-1 mice
Procedure: as §1
Tension development in isolated mouse vas deferens was measured as described previously (Chang et al., 1993). Following cervical dislocation, vasa deferentia were isolated from male CD-1 mice (Charles River, Raleigh, N.C.) weighing 20-25 g. Muscles were suspended in individual organ baths containing Mg-free Krebs-Henseleit solution (37° C., aerated with O2—CO2, 95:5) of the following composition (mM): NaCl, 117.5; KCl, 4.75; CaCl2, 2.6; KH2PO4, 1.2; NaHCO3, 24.5; and glucose, 11. The vas deferens segments were positioned between platinum electrodes (Radnoti Glassware Technology Inc., Monrovia, Calif.) and connected to a Grass (Grass-Telefactor, West Warwick, R.I.) FTO3 isometric force transducer under a resting tension of 0.5 g. Muscles were stimulated to contract by administering 400 msec pulse trains (1 msec duration, supramaximal voltage, 10 Hz) with a Grass S88 stimulator. An IC50 value for test compound inhibition of electrically-induced contractions was produced through the addition of cumulative concentrations of test compound to the bathing solution (Chang et al., 1993).
The ED50 values for formula (ii) were extrapolated from curves showing the dose concentration plotted against the response and are presented in FIG. 2.

delta-opioid receptor = biological target: T4, delta-opioid receptor (Rattus norvegicus, UniProt P33533); test: Radioligand binding, delta receptor ([3H]DPDPE)
T4 construct: delta and mu receptors from rat whole brain homogenate; from tissue; host or cells: rat whole brain homogenate (membrane fractions)
Procedure: as §1, §2

haloperidol-treated rats = test: Locomotor activity in haloperidol treated rats; type: in vivo, rat; conditions: for Efficacy on locomotor activity (FIG. 1): compound 15 minutes after haloperidol, 1, 3, 10 or 30 mg/kg, total counts over 1 h
Procedure: (§3) Behavioral parameters were monitored in transparent shoebox cages that measured 45×25×20 cm, with a 1-cm depth of wood chips on the cage floor and a plastic grid on top of the cage. Rectangular photocell monitors with a bank of 3 photocell beams surrounded each test cage. Ambulations (locomotor activity: total number of beam breaks in 1 hour) were recorded by computer and stored for each test session.
(§4) Animals were administered injections of dextrose, reserpine or haloperidol. Formula (i) or Formula (ii) was then administered 18 hours after reserpine at doses of 3, 10 or 30 mg/kg or 15 minutes after haloperidol at doses of 1, 3, 10 or 30 mg/kg. Animals were monitored over a 60-min period in all instances, and data are expressed as total counts over the entire 1 h test period. […] In these studies, clinically effective therapies such as dopamine replacement therapy restore locomotor activity in dopamine-depleted or dopamine antagonist treated animals. Dopamine replacement therapy also, however, produces an overshoot in locomotor activity beyond the locomotor counts observed with normal control animals (with intact dopamine systems). This is considered the activating component of dopamine replacement therapy that results in dyskinesias in Parkinson's patients.

rats [4] = test: Seizure-like convulsant activity in rats; type: in vivo, rat; conditions: oral doses up to 40 mg/kg, results not shown
[5] = system: Parkinson's disease rodent models; test: Parkinson's disease rodent models (summary statements); type: in vivo, rat; conditions: for Overshoot of locomotor activation beyond normal control animals: haloperidol- or reserpine-treated rats
Procedure: as §3, §4
An opioid receptor agonist selective for the delta receptor. • 2. Active in Parkinson's disease rodent models. • a. Potent at improving locomotor activity of haloperidol-treated rats. • b. Potent at improving locomotor activity in reserpine treated rats. • 3. Orally active in Parkinson's disease rodent models. • a.

reserpine treated rats = test: Locomotor activity in reserpine treated rats; type: in vivo, rat; conditions: compound 18 hours after reserpine, 3, 10 or 30 mg/kg, total counts over 1 h
Procedure: as §3, §4

mice [6] = conditions: cited from earlier work
kappa-opioid receptor [7] = biological target: T2, kappa-opioid receptor; conditions: known results of SNC80; read-out: Receptor Binding Affinity, Ki Kappa; cited from earlier work
MPTP-treated marmosets = conditions: cited from earlier work
mu-opioid receptor [8] = biological target: T1, mu-opioid receptor; conditions: known results of SNC80; read-out: Receptor Binding Affinity, Ki Mu; cited from earlier work
rats [9] = conditions: cited from earlier work
[10] = system: rats treated with reserpine or dopamine receptor antagonists (haloperidol or SCH23390); conditions: 10 mg/kg i.p.; cited from earlier work
[11] = system: MPTP-lesioned primate (marmosets) model of Parkinson's disease; conditions: 10 mg/kg i.p., without attenuation of the anti-parkinsonian actions of L-DOPA; cited from earlier work

T4 sequence (P33533 whole entry): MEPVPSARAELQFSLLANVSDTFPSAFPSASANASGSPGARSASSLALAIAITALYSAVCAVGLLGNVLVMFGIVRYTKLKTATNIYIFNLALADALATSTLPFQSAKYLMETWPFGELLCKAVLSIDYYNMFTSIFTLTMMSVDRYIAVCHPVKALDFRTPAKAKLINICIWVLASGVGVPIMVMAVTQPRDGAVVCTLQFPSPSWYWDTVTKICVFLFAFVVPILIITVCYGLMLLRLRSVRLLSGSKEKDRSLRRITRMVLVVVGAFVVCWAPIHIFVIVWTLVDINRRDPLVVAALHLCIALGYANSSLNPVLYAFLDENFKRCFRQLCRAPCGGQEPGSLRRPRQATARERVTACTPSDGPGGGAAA
T3 sequence (P32300 whole entry): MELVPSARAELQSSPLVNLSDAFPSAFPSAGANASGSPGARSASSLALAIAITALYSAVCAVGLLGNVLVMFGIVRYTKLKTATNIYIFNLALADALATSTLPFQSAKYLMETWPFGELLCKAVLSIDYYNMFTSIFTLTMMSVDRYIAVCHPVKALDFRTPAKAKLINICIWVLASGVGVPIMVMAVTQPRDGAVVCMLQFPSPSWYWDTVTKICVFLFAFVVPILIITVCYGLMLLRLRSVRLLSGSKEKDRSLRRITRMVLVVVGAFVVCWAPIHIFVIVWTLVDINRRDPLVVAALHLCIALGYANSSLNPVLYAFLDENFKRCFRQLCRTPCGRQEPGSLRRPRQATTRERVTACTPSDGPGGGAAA
T1 sequence (P33535 whole entry): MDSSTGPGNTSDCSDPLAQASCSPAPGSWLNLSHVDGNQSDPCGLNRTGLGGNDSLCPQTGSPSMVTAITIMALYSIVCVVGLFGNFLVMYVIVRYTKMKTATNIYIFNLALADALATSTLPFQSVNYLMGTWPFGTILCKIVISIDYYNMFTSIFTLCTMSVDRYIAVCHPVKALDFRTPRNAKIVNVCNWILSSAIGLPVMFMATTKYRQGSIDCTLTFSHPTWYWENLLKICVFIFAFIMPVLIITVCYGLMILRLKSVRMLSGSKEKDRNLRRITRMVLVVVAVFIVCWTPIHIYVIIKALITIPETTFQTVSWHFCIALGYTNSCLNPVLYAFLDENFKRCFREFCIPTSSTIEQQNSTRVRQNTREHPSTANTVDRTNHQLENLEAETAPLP
T2 sequence (P41144 whole entry): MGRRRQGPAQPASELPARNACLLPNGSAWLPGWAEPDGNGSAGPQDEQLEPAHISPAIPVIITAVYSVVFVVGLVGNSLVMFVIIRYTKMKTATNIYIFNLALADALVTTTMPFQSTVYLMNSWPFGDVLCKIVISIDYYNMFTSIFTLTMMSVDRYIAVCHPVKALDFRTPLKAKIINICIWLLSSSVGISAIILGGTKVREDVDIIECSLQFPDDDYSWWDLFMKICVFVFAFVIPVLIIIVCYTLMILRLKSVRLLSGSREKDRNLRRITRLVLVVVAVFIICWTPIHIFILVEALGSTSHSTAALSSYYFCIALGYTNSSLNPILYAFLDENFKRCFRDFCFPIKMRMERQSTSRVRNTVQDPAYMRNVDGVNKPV

| SMILES | Seizure-like convulsion incidence in mice (% of animals treated) (mice [1]; Intravenous 1 mg/kg) [%] | Seizure-like convulsion incidence in mice (% of animals treated) (mice [1]; Intravenous 3 mg/kg) [%] | Seizure-like convulsion incidence in mice (% of animals treated) (mice [1]; Oral 60 mg/kg) [%] | Ki (mu-opioid receptor [2]) [nM] | Ki (kappa-opioid receptor [3]) [nM] | EC50 (delta receptor) [nM] | Ki (delta-opioid receptor) [nM] | Efficacy on locomotor activity (FIG. 1) (haloperidol-treated rats; haloperidol treated rats) | Oral activity in Parkinson's disease rodent models [5] | Efficacy on locomotor activity (FIG. 1) (reserpine treated rats) | also measured |
| --- | --- | --- | --- | --- | --- | --- | --- | --- | --- | --- | --- |
| CCN(CC)C(=O)c1ccc([C@H](c2cccc(OC)c2)N2C[C@@H](C)N(Cc3ccccc3F)C[C@@H]2C)cc1 [Formula (iv), 4-((alpha-R)-alpha-((2S,5R)-2,5-Dimethyl-4-(2-fluorobenzyl)-1-piperazinyl)-3-methoxybenzyl)-N,N-diethylbenzamide] | 0 | 20 | 10 | 5000 | 100 | 4.1 | 4.2 |  |  |  | Seizure-like convulsion incidence in mice (% of animals treated) (mice [1]; Oral 30 mg/kg): 0% |
| Oc1ccc2c3c1O[C@H]1c4[nH]c5ccccc5c4C[C@@]4(O)[C@@H](C2)N(CC2CC2)CC[C@]314 [naltrindole, reference compound] |  |  |  |  |  |  |  |  |  |  | Effect alone in haloperidol treated rats (FIG. 4) (haloperidol-treated rats; naltrindole alone): no effect |
| CCN(CC)C(=O)c1ccc([C@H](c2cccc(OC)c2)N2C[C@@H](C)N(Cc3cccc(F)c3)C[C@@H]2C)cc1 [Formula (iii), 4-((alpha-R)-alpha-((2S,5R)-2,5-Dimethyl-4-(3-fluorobenzyl)-1-piperazinyl)-3-methoxybenzyl)-N,N-diethylbenzamide] |  | 20 | 0 | 5000 | 100 | 29 | 5.6 |  |  |  |  |
| CCN(CC)C(=O)c1ccc([C@H](c2cccc(O)c2)N2C[C@@H](C)N(Cc3cccc(F)c3)C[C@@H]2C)cc1 [Formula (i), 4-((alpha-R)-alpha-((2S,5R)-2,5-Dimethyl-4-(3-fluorobenzyl)-1-piperazinyl)-3-hydroxybenzyl)-N,N-diethylbenzamide] | 50 | 40 |  | 11.6 | 567 | 2.6 | 0.73 | clear efficacy | Orally active | clear efficacy | Seizure-like convulsion incidence in mice (% of animals treated) (mice [1]; Intravenous 0.3 mg/kg): 0%; Seizure-like convulsion incidence in mice (% of animals treated) (mice [1]; Oral 15 mg/kg): 23%; Seizure activity in mice relative to SNC80 (mice [1]): reduced relative to SNC80; Oral seizure-like convulsant activity in rats (rats [4]): no oral-seizure-like convulsant activity; Binding affinity for the mu receptor compared to SNC80 (mu-opioid receptor [2]): increased binding affinity; Binding affinity for the delta receptor compared to SNC80 (delta-opioid receptor): increased binding affinity; Overshoot of locomotor activation beyond normal control animals [5]: No evidence for overshoot of locomotor activation |
| C=CCN1C[C@H](C)N([C@H](c2ccc(C(=O)N(CC)CC)cc2)c2cccc(OC)c2)C[C@H]1C [SNC80] | 30 | 100 |  |  |  |  |  | clear efficacy | lack of oral activity | clear efficacy | Seizure-like convulsions (Broom, et al., 2002) (mice [6]): produce seizure-like convulsions; Seizure-like convulsion incidence in mice (% of animals treated) (mice [1]; Intravenous 0.3 mg/kg): 0%; Ki (kappa-opioid receptor [7]): 4100 nM; Parkinsonian posture induced by MPTP treatment (MPTP-treated marmosets): not statistically reversed; Motor activity, bradykinesia and disability scores (MPTP-treated marmosets; similar dose levels (10 mg/kg)): restored motor activity, bradykinesia and disability scores to normal; Ki (mu-opioid receptor [8]): 4800 nM; Seizure-like convulsions (Broom, et al., 2002) (rats [9]): produce seizure-like convulsions; Behavioral deficits (ambulatory behavior, grooming, rearing, social interaction and exploration, static investigation) [10]: restored behavioral deficits |
| CCN(CC)C(=O)c1ccc([C@H](c2cccc(O)c2)N2C[C@@H](C)N(Cc3ccccc3F)C[C@@H]2C)cc1 [Formula (ii), 4-((Alpha-R)-Alpha-((2S,5R)-2,5-Dimethyl-4-(2-fluorobenzyl)-1-piperazinyl)-3-hydroxybenzyl)-N,N-diethylbenzamide] | 0 | 30 | 30 | 7.8 | 171 | 3 |  | clear efficacy | Orally active | clear efficacy | Seizure-like convulsion incidence in mice (% of animals treated) (mice [1]; Oral 15 mg/kg): 20%; Seizure-like convulsion incidence in mice (% of animals treated) (mice [1]; Oral 30 mg/kg): 20%; Seizure activity in mice relative to SNC80 (mice [1]): reduced relative to SNC80; Binding affinity for the mu receptor compared to SNC80 (mu-opioid receptor [2]): increased binding affinity; Beneficial effects in presence of delta receptor antagonist naltrindole (FIG. 4) (haloperidol-treated rats; haloperidol treated rats, with naltrindole (NTI)): completely blocked; Anti-parkinsonian syndrome effects (FIG. 3B) (haloperidol-treated rats; haloperidol-treated rats, i.p. (intraperitoneal)): shows potency; Anti-parkinsonian syndrome effects (FIG. 3A) (haloperidol-treated rats; haloperidol-treated rats, p.o. (oral, by gavage)): shows potency; Binding affinity for the delta receptor compared to SNC80 (delta-opioid receptor): increased binding affinity; Ki (delta-opioid receptor; rat whole brain homogenate, 0.1 nM [3H]DPDPE, read-out: Receptor Binding Affinity, Ki Delta): 0.77 nM; Overshoot of locomotor activation beyond normal control animals [5]: No evidence for overshoot of locomotor activation |
| COc1cccc2c1[C@]13CCN(CC4CC4)[C@H](C2)[C@]1(OC)CCC(=O)C3 [cyprodime] |  |  |  |  |  |  |  |  |  |  | L-DOPA-induced dyskinesia [11]: reduce completely |
